Test results from patent US7238347B2, “Suicidal mutant Leishmania vaccine” (priority 2005, dated 2007).

Experiments:
[1] = test system: J774A1 macrophages infected with alad/pbgd double transfectants; experiment: Intracellular transgenic amastigotes and macrophages per culture after ALA; type: cell-based, mouse; settings: 1-2 mM ALA
Protocol: J774A1 cells were infected in vitro with alad/pbgd double transfectants of L. amazonensis at a promastigote-to-macrophage ratio of 10:1. Infected cultures were maintained at 35° C. with daily medium renewal for 42 days. Cultures were split equally into two, one with and the other without the addition of 1-2 mM ALA 3 times on days 2, 26 and 40 post-infection (arrows). The total number of intracellular amastigotes (left) and macrophages (right) per culture were estimated at the time points indicated, as described (Chang, 1980). Note: Decrease of intracellular amastigotes in number after the 1st 2 ALA treatments.
Intra-macrophage amastigotes are lysed selectively when rendered uroporphyric in situ, as determined by quantitative analysis of parasites and macrophages in such infected cultures (FIG. 15). This observation further strengthens the use of porphyric Leishmania as a live model for vaccine delivery. We observed this by using macrophages infected with the double transfectants. The infected cultures were split equally into 2 identical sets. In a total period of 42 days, one set received 3 separate ALA treatments, each pulsed for ˜24 hrs, at different time points after infection, while the other set received no treatments (see legend to FIG. 15 for experimental conditions). […]

Leishmania donovani DD8 = experiment: Hamster vaccination, Experiment 2, challenge with L. donovani; type: in vivo, Syrian Golden hamsters
Excerpt: The values for body weights were from all animals available at specific time points. Two animals were sacrificed per group per time point for assessing spleen weights and parasite loads;
Impression smears (Left panel) of cut spleens were Geimsa-stained and examined microscopically under oil immersion lens to enumerate amastigotes per 1,000 splenic nuclei as a measure of parasite loads (Right Panel). Note: Parasite loads decrease precipitously after day 45 in contrast to the control groups. The data are consistent with the data for animal body weights and spleen weights; and
The 2nd experiment was designed to verify and to strengthen the results of the 1st experiment by including 2 additional control groups. One is to treat animals with ALA alone so as to eliminate the potential contribution of this metabolite to the outcome observed. Another is to include pbgd single transfectants (ST) as an additional non-porphyric control to ascertain that the prophylactic effects observed are independent of factors specific to DT or L. amazonensis infection alone. There is some indication of this in the 1st experiment for “vaccination” of hamsters with the DT−ALA+LD group whose splenic parasite loads remained high, but the amastigotes look degenerative (FIG. 20). Except for “vaccination” on the back and illumination with white light, experimental conditions otherwise followed those in the 1st as follows:
A total of 50 Syrian Golden hamsters (40-45 gm) were used 10 per group for each of the following experimental and control groups:
Day 6 (Sep. 28, 2004): Harvest and resuspend cells for inoculation intradermally to a shaved area (˜2 cm×2 cm) on the back of the animals as follows:
Days 9-12 (Oct. 1-4, 2004): inject the same site of each animal daily 4× with 20 ul […] ALA solution
Days 13-17 (Oct. 5-9, 2004): Illuminate caged animals from 9 AM to 5 PM daily for five days under white light [Four bulbs of 100 W (Phillips)+2 tube lights of 40 W in an AC room of 6 ft×6 ft×10 ft] 2 ft above, keeping a constant temperature of 26-27° C.
[…] (Oct. 25, 2004): Challenge 9 animals of each group with 107 DD8 strain of L. donovani amastigotes/animal by intracardiac route.
Day 78 (Dec. 9, 2004): Parasitological/immunological evaluations-45 days post-challenge (FIG.).
Day 93 (Dec. 24, 2004): Parasitological/immunological evaluations-60 days post-challenge (FIG.).
Day 147 (Feb. 16, 2005): survivors left of a total of 4 animals 114 days after challenge, excluding 6 sacrificed for experimentation on days 0, 45, and 60.

[2] = test system: hamster lymph node mononuclear cells; experiment: Proliferation of lymph node cells to Con-A and Leishmania soluble antigens, tritiated thymidine; type: cell-based; settings: 45 days after challenging infection, 20 ug/ml antigen
Protocol: Lymph nodes of hamsters from experimental and control groups, as indicated, were used 45 days after challenging infection to prepare mononuclear cell-suspension (10^6/ml). Aliqouts of 100 ul were cultured in 96 well flat bottom tissue culture plates (Nunc, Denmark). 100 ul of Conconavalin A or soluble L. donovani promastigote antigens were added to each well, giving a final concentration of 10 ug/ml and 20 ug/ml, respectively. Cultures were prepared in triplicate for each sample and incubated at 37° C. and 5% CO2 for 3 days and 5 days for Con-A treated and antigen-treated cells, respectively. Eighteen hours prior to termination of incubation of cultures, 0.5 uCi of tritiated-thymidine was added to each well. Cells were harvested on to glass fiber mats (Whatman) for liquid scintillation counting.

## NCC(=O)CCC(=O)O [ALA, delta-aminolevulinate]
[1]
  growth of J774A1 macrophages: unaffected
Leishmania donovani DD8; 114 days after challenge
  survivors left of a total of 4 animals: 0/4
Leishmania donovani DD8; ALA treatment alone
  immunoprophylactic effect: ineffective
Leishmania donovani DD8; day 45 to day 60 post challenge
  splenic parasite loads, amastigotes in impression smears: abundant in number
Leishmania donovani DD8; days 45 and 60 post-challenge
  splenomegaly by spleen weight: most pronounced
[2]
  lymph node cell response to LSA: virtually no response
